Consider 1 molecule from paper PMC11009648, “Development of an orally bioavailable mSWI/SNF ATPase degrader and acquired mechanisms of resistance in prostate cancer” (Proceedings of the National Academy of Sciences of the …, 2024).

This test has as its system 22Rv1 AUR-3 cells. The test is described as follows: CellTiter-Glo cell viability assay in AU-15330-resistant 22Rv1 AUR-3 cells (ABCB1 overexpression). Format: cell-based, human. The text has this:
The rising importance of the mSWI/SNF complex as a therapeutic target and the success ([32], [33]) of developing next-generation PROTAC degraders targeting the mSWI/SNF complex prompted us to proactively study potential resistance mechanisms that cancer cells may develop in response to this class of compounds. To achieve this, we cultured 22Rv1 cells in either DMSO or a lethal dose of AU-15330 for 1 mo, refreshing the drug twice a week, until resistant cells emerged. Upon obtaining a population of resistant cells, we unbiasedly characterized the genomic and transcriptomic alterations using whole-exome sequencing and bulk RNA sequencing (RNA-seq), respectively (Fig. 3A).
Cells were seeded onto 96-well plates in appropriate culture media and allowed to adhere overnight prior to treatment. The next day, a nine-point serial dilution of the compounds was prepared and added to the plates. After treatment, the cells were then incubated for an additional 5 d. On the last day of treatment, the CellTiter-Glo cell viability assay (Promega) was then executed in accordance with the manufacturer’s guidelines. The signal (luminescence) from each well was determined using an Infinite M1000 Pro plate reader (Tecan). Relative viability was determined by dividing the signal from each well by the average of the control condition in each experiment. Finally, the data were analyzed and plotted using GraphPad Prism.

With `Nc1nnc(-c2ccccc2O)cc1-c1ccc(N2CCC(N3CCC(c4ccc(OC5CCC(=O)NC5=O)cc4)CC3)CC2)cc1` (centres unmarked) [AU-24118], where the note is “22Rv1 AUR-3 cells (Fig. S5 E and F)”, the “sensitivity of AUR-3 cells versus WT” value is “dramatically less sensitive”. It took 458 nM to reach half-maximal inhibition (Homo sapiens, 22Rv1, Fig. S5F, 22Rv1 AUR-3) (IC50).
